Experimental data as given in article PMC3183052, “Immunoprotectivity of HLA-A2 CTL Peptides Derived from Respiratory Syncytial Virus Fusion Protein in HLA-A2 Transgenic Mouse” (PLoS ONE, 2011).

Tested on: peptide-loaded dendritic cells from HLA-Tg B6 mice
Experiment: In vitro CTL assay (CFSE/7-AAD) with pulmonary effector lymphocytes
Type: cell-based, mouse
Settings: pulmonary effector lymphocytes of immunized, RSV-challenged mice; peptide-loaded CFSE-labeled DCs; E:T 10:1 and 50:1; 7-AAD/CFSE flow cytometry
Description: Dendritic cells (DCs) isolated from HLA-A*0201-Tg B6 mice were used as target cells for CTL assay. Briefly, tibia were isolated from 6–8 weeks old mice and rinsed with 75% alcohol before their incubation with lymphocyte culture medium (LCM, RPMI containing 5% FBS, 20 mM HEPES, 50 µM 2-mecaptoenthanol, 1× P/S). The myeloid tissues were removed from the tibia with LCM and filtrated through 40 µm cell strainer (BD Falcon). The filtrates were centrifuged at 1200 rpm for 5 minutes and the cell pellet was resuspended in 2 mL RBC lysis solution (eBioscience), and incubated for 5 minutes followed by addition of 10 mL of 1× PBS buffer to stop lysis. […]
A non-radioactive assay for cell-mediated cytotoxicity using a green fluorescent probe CFSE to label target cells in combination with 7-amino-actinomycin D (7AAD), a red fluorescent probe to label dead effectors and target cells, was used to assess the presence of RSV F protein-specific CTLs in spleens or lungs of the immunized animals. […] CFSE was measured in FL1 channel and 7-AAD in FL3 channel. The percentage of CFSE/7-AAD double positive target cells (i.e., DCs cell death) was analyzed. […]
Figure 5 Induction of pulmonary IFN-γ and CTL activity in peptide immunized transgenic mice challenged with RSV. At day 4 post RSV infection, lung homogenates were prepared and the following were measured. […]

Sequence: YMLTNSELL [peptide 14, HLA-A*0201-restricted 9-mer synthetic peptide from F protein of RSV-B1 strain]
- CTL activity, target cell lysis: efficient in target cell lysis
